US12030879B2, “Sulfonyl acetamides as NLRP3 inhibitors” (Inflazome Limited, priority 2018, dated 2024)
Where a name gives a salt, the structure may show the parent alone.

Each compound was assayed against T1, NLRP3 (Homo sapiens, UniProt Q96P20) (assay: THP-1 cells pyroptosis assay). Settings: LPS 1 μg/ml, compound 3 hrs, nigericin 5 μM 1 hr, resazurin readout.
T1 construct: Seed THP-1 cells (25,000 cells/well) containing 1.0 μg/ml LPS in 40 μl of RPMI medium; host or cells: THP-1 cells
T1 sequence (Q96P20 whole entry): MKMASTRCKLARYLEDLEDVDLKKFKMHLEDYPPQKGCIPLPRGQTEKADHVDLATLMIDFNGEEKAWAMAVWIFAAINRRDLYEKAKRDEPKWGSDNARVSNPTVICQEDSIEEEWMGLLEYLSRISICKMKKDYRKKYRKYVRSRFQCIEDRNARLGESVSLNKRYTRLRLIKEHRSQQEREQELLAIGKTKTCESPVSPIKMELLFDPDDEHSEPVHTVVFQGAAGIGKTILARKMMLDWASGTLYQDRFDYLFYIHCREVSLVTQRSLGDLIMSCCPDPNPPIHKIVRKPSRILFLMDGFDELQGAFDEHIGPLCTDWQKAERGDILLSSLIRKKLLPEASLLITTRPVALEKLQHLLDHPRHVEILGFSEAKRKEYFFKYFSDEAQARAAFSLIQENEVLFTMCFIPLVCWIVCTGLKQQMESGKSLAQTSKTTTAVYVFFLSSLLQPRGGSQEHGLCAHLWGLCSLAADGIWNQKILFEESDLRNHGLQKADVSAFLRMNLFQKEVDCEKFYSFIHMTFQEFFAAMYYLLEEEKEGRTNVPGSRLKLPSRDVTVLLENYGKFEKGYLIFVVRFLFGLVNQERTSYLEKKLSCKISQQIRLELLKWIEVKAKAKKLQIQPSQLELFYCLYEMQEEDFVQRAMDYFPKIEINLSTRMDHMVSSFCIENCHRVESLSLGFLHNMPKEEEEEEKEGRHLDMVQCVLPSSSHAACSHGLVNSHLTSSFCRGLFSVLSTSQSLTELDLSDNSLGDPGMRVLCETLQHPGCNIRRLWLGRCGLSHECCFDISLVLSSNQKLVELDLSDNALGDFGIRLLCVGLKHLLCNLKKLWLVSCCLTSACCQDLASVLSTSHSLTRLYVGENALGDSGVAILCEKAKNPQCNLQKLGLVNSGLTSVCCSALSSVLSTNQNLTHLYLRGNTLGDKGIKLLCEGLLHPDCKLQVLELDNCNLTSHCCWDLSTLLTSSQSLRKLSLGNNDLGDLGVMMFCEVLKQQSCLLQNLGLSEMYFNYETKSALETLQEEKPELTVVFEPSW
Format: cell-based
Outline: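 LPS-primed (1 μg/ml) THP-1 cells in serum-free RPMI were treated 3 h with compound (8-point half-log, top 10 μM; 0.1% DMSO), then with 5 μM nigericin for 1 h at 37°C. Viability was read by 100 μM resazurin (ex 560/em 590 nm) after 1–2 h. IC50 came from 4-parameter nonlinear regression.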
For `COc1cc(-c2cc(F)cc(C(C)(C)F)c2CC(=O)NS(=O)(=O)c2ccc(C(C)(C)O)cc2C)ccn1` [Example 86, 2-(4-Fluoro-2-(2-fluoropropan-2-yl)-6-(2-methoxypyridin-4-yl)phenyl)-N-((4-(2-hydroxypropan-2-yl)-2-methylphenyl)sulfonyl)acetamide], the IC50 was at most 5 µM. For `COc1cc(-c2cc(F)cc(C(C)C)c2CC(=O)NS(=O)(=O)N(C)C2CCN(C)C2)ccn1` (stereo not drawn) [Example 76, 2-(4-Fluoro-2-isopropyl-6-(2-methoxypyridin-4-yl)phenyl)-N—(N-methyl-N-(1-methylpyrrolidin-3-yl)sulfamoyl)acetamide], the IC50 was at most 5 µM. `CC(C)c1cc(F)cc(-c2ccc(Cl)nc2)c1CC(=O)NS(=O)(=O)c1cc(C(C)(C)O)cs1` [Example 10] was tested, and the IC50 was at most 5 µM. `CCCn1cc(S(=O)(=O)NC(=O)Cc2c(-c3ccnc(OC)c3)cc(F)cc2C(C)C)c(C)n1` [Example 207] gave an IC50 of at most 1 µM. In the case of `COc1ccc(-c2cc(F)cc(C(C)C)c2CC(=O)NS(=O)(=O)c2cc(C(C)(C)O)cs2)cn1` [Example 145], the IC50 is reported as at most 0.5 µM. In the case of `COc1cc(-c2cc(F)cc(C(C)C)c2CC(=O)NS(=O)(=O)c2ccc(Cl)c(Cl)c2)ccn1` [Example 11], the IC50 is reported as at most 1 µM. For `CC(C)c1cc(F)cc(-c2ccncc2)c1CC(=O)NS(=O)(=O)c1ccc(CN(C)C)cc1` [Example 36, N-((4-((Dimethylamino)methyl)phenyl)sulfonyl)-2-(4-fluoro-2-isopropyl-6-(pyridin-4-yl)phenyl)acetamide], the IC50 was at most 5 µM. With `COc1cc(-c2cc(F)cc(C(C)C)c2CC(=O)NS(=O)(=O)c2c(C)cc(N(C)C)cc2C)ccn1` [Example 146] the IC50 was at most 10 µM. `COc1cc(-c2cc(F)cc(C(C)C)c2CC(=O)NS(=O)(=O)CC2(C#N)CCCCC2)ccn1` [Example 114] showed an IC50 of at most 1 µM. In the case of `CC(C)c1cc(F)cc(-c2ccncc2)c1CC(=O)NS(=O)(=O)c1cc(C(C)(C)O)cs1` [Example 27, 2-(4-Fluoro-2-isopropyl-6-(pyridin-4-yl)phenyl)-N-((4-(2-hydroxypropan-2-yl)thiophen-2-yl)sulfonyl)acetamide, potassium salt], the IC50 is reported as at most 0.5 µM. For `Cc1cc(C(C)(C)O)ccc1S(=O)(=O)NC(=O)Cc1c(-c2ccncc2)cc(F)cc1C(C)C` [Example 186], the IC50 was at most 0.5 µM. With `COc1cc(-c2cc(F)cc(C(C)C)c2CC(=O)NS(=O)(=O)c2cccc(CNC(C)=O)c2)ccn1` [Example 133] the IC50 was at most 5 µM. Work on `COc1cncc(-c2cc(F)cc(C(C)C)c2CC(=O)NS(=O)(=O)c2cc(C(C)(C)O)cs2)c1` [Example 148] yielded an IC50 of at most 5 µM. With `COc1cc(-c2cc(F)cc(C(C)C)c2CC(=O)NS(=O)(=O)c2cc(C)c(C)s2)ccn1` [Example 121] the IC50 was at most 0.5 µM. `C=C(C)c1cc(S(=O)(=O)NC(=O)Cc2c(-c3ccnc(OC)c3)cc(F)cc2C(C)C)c(F)cc1F` [Example 165] was tested, and the IC50 was at most 0.5 µM. `COc1cc(-c2cc(F)cc(C(C)C)c2CC(=O)NS(=O)(=O)c2ccc(C(C)(C)N(C)C)c(F)c2)ccn1` [Example 91, N-((4-(2-(Dimethylamino)propan-2-yl)-3-fluorophenyl)sulfonyl)-2-(4-fluoro-2-isopropyl-6-(2-methoxypyridin-4-yl)phenyl)acetamide] was tested, and the IC50 was at most 5 µM. With `COc1cc(-c2cc(F)cc(C(C)C)c2CC(=O)NS(=O)(=O)c2cn(C(C)C)nc2C)ccn1` [Example 173] the IC50 was at most 0.5 µM. In the case of `COc1cc(-c2cc(F)cc(C(C)C)c2CC(=O)NS(=O)(=O)c2cccc(CN(C)C)c2)ccn1` [Example 180], the IC50 is reported as at most 5 µM. For `COc1cc(-c2cc(F)cc(C(C)C)c2C(F)C(=O)NS(=O)(=O)c2cc(C(C)(C)O)co2)ccn1` (stereo not drawn) [Example 103, 2-Fluoro-2-(4-fluoro-2-isopropyl-6-(2-methoxypyridin-4-yl)phenyl)-N-((4-(2-hydroxypropan-2-yl)furan-2-yl)sulfonyl)acetamide], the IC50 was at most 10 µM. `COc1cc(-c2cc(F)cc(C(C)C)c2CC(=O)NS(=O)(=O)c2cc(C#N)ccc2C)ccn1` [Example 35, N-((5-Cyano-2-methylphenyl)sulfonyl)-2-(4-fluoro-2-isopropyl-6-(2-methoxypyridin-4-yl)phenyl)acetamide] was tested, and the IC50 was at most 10 µM. `COc1cc(-c2cc(F)cc(C(C)C)c2CC(=O)NS(=O)(=O)c2ccc(Cl)c(C)c2)ccn1` [Example 101, N-((4-Chloro-3-methylphenyl)sulfonyl)-2-(4-fluoro-2-isopropyl-6-(2-methoxypyridin-4-yl)phenyl)acetamide] gave an IC50 of at most 0.5 µM. Compound `COC(=O)c1cc(S(=O)(=O)NC(=O)Cc2c(-c3ccnc(OC)c3)cc(F)cc2C(C)C)sc1C` [Example 176] has an IC50 of at most 0.5 µM. For `COc1cc(-c2cc(F)cc(C(C)C)c2CC(=O)NS(=O)(=O)c2ccc(C(C)C)cn2)ccn1` [Example 185], the IC50 was at most 0.5 µM. Compound `CC(C)c1cc(F)cc(-c2ccncc2)c1CC(=O)NS(=O)(=O)c1cc(C(=O)N(C)C)n(C)n1` [Example 60, 3-(N-(2-(4-Fluoro-2-isopropyl-6-(pyridin-4-yl)phenyl)acetyl)sulfamoyl)-N,N,1-trimethyl-1H-pyrazole-5-carboxamide] has an IC50 of at most 5 µM. Work on `CN(C)C(=O)c1cc(S(=O)(=O)NC(=O)Cc2c(-c3ccnc(C#N)c3)ccc3c2CCC3)nn1C` [Example 65, 3-(N-(2-(5-(2-Cyanopyridin-4-yl)-2,3-dihydro-1H-inden-4-yl)acetyl)sulfamoyl)-N,N,1-trimethyl-1H-pyrazole-5-carboxamide] yielded an IC50 of at most 5 µM. Compound `COC(=O)c1ccc(S(=O)(=O)NC(=O)Cc2c(-c3ccnc(OC)c3)cc(F)cc2C(C)C)cc1Cl` [Example 9] has an IC50 of at most 5 µM. `COc1cc(-c2cc(F)cc(C(C)C)c2CC(=O)NS(=O)(=O)c2cc(C(C)(C)O)n(C(C)C)n2)ccn1` [Example 196] was tested, and the IC50 was at most 10 µM. `COc1cc(-c2cc(F)cc(C(C)C)c2CC(=O)NS(=O)(=O)CCCC(C)(C)O)ccn1` [Example 78, 2-(4-Fluoro-2-isopropyl-6-(2-methoxypyridin-4-yl)phenyl)-N-((4-hydroxy-4-methylpentyl)sulfonyl)acetamide] was tested, and the IC50 was at most 10 µM. For `COc1cc(-c2cc(F)cc(C(C)C)c2CC(=O)NS(=O)(=O)c2cccc(C#N)c2)ccn1` [Example 30, N-((3-Cyanophenyl)sulfonyl)-2-(4-fluoro-2-isopropyl-6-(2-methoxypyridin-4-yl)phenyl)acetamide], the IC50 was at most 5 µM. `CC(C)c1cc(F)cc(-c2cccnc2)c1CC(=O)NS(=O)(=O)c1ccn(C(C)C)n1` [Example 24, 2-(4-Fluoro-2-isopropyl-6-(pyridin-3-yl)phenyl)-N-((1-isopropyl-1H-pyrazol-3-yl)sulfonyl)acetamide, potassium salt] showed an IC50 of at most 10 µM. In the case of `COc1cc(-c2cc(F)cc(C(C)C)c2CC(=O)NS(=O)(=O)c2cccc3ccoc23)ccn1` [Example 115], the IC50 is reported as at most 1 µM. `COc1cc(-c2cc(F)cc(C(C)C)c2CC(=O)NS(=O)(=O)c2ccc(C(C)(C)NC(C)=O)c(F)c2)ccn1` [Example 88, N-((4-(2-Acetamidopropan-2-yl)-3-fluorophenyl)sulfonyl)-2-(4-fluoro-2-isopropyl-6-(2-methoxypyridin-4-yl)phenyl)acetamide] was tested, and the IC50 was at most 5 µM. `C=C(C)c1csc(S(=O)(=O)NC(=O)Cc2c(C(C)C)nn(C)c2-c2ccnc(OC)c2)c1` [Example 154] gave an IC50 of at most 0.5 µM. Work on `COc1cc(-c2cc(F)cc(C(C)C)c2CC(=O)NS(=O)(=O)c2ccc(C(C)(C)O)c(F)c2)ccn1` [Example 84, 2-(4-Fluoro-2-isopropyl-6-(2-methoxypyridin-4-yl)phenyl)-N-((3-fluoro-4-(2-hydroxypropan-2-yl)phenyl)sulfonyl)acetamide] yielded an IC50 of at most 1 µM. Work on `CC(C)c1cc(F)cc(-c2ccncc2)c1CC(=O)NS(=O)(=O)c1ccc(Cl)cc1` [Example 16] yielded an IC50 of at most 5 µM. For `COc1cc(-c2cc(F)cc(C(C)C)c2CC(=O)NS(=O)(=O)c2ccc(C)cc2)ccn1` [Example 112, 2-(4-Fluoro-2-isopropyl-6-(2-methoxypyridin-4-yl)phenyl)-N-tosylacetamide], the IC50 was at most 5 µM. In the case of `COc1cc(-c2cc(F)cc(C(C)C)c2CC(=O)NS(=O)(=O)c2c(Cl)cc(N(C)C)cc2Cl)ccn1` [Example 161], the IC50 is reported as at most 5 µM. In the case of `COc1cc(-c2cc(F)cc(C(C)C)c2CC(=O)NS(=O)(=O)C[C@@]23CC[C@@H](C[C@H]2O)C3(C)C)ccn1` [Example 77, 2-(4-Fluoro-2-isopropyl-6-(2-methoxypyridin-4-yl)phenyl)-N-((((1R,2R,4S)-2-hydroxy-7,7-dimethylbicyclo[2.2.1]heptan-1-yl)methyl)sulfonyl)acetamide], the IC50 is reported as at most 5 µM. In the case of `COc1cc(-c2cc(F)cc(C(C)C)c2CC(=O)NS(=O)(=O)c2cc3ccccc3o2)ccn1` [Example 116], the IC50 is reported as at most 1 µM. `COc1cc(-c2cc(F)cc(C(C)C)c2CC(=O)NS(=O)(=O)c2c(C)nn(CC(F)(F)F)c2C)ccn1` [Example 168] gave an IC50 of at most 5 µM. `COc1cc(-c2cc(F)cc(C(C)C)c2CC(=O)NS(=O)(=O)c2ccc(Cl)c(F)c2)ccn1` [Example 135] was tested, and the IC50 was at most 5 µM. `COc1cc(-c2cc(F)cc(C(C)C)c2CC(=O)NS(=O)(=O)c2cncc(C(C)(C)O)c2)ccn1` [Example 198] showed an IC50 of at most 0.5 µM. For `COc1cc(-c2cc(F)cc(C(C)C)c2CC(=O)NS(=O)(=O)c2cc(C(C)(C)OC)cs2)ccn1` [Example 144], the IC50 was at most 0.5 µM. Work on `COc1cc(-c2cc(F)cc(C(C)C)c2CC(=O)NS(=O)(=O)c2ccnc(C(C)(C)O)c2)ccn1` [Example 181] yielded an IC50 of at most 0.5 µM. Compound `Cc1cc(C(C)(C)O)ccc1S(=O)(=O)NC(=O)Cc1c(-c2cccnc2)cc(F)cc1C(C)C` [Example 82, 2-(4-Fluoro-2-isopropyl-6-(pyridin-3-yl)phenyl)-N-((4-(2-hydroxypropan-2-yl)-2-methylphenyl)sulfonyl)acetamide] has an IC50 of at most 5 µM. With `C=C(C)c1csc(S(=O)(=O)NC(=O)Cc2c(-c3ccnc(OC)c3)cc(F)cc2C(C)C)c1` [Example 150] the IC50 was at most 0.5 µM. In the case of `COc1cc(-c2cc(F)cc(C(C)C)c2CC(=O)NS(=O)(=O)c2c(C)nn(CC(F)F)c2C)ccn1` [Example 175], the IC50 is reported as at most 5 µM. With `COc1cc(-c2cc(F)cc(C(C)C)c2CC(=O)NS(=O)(=O)c2cc(C(C)(C)O)c(C)s2)ccn1` [Example 159] the IC50 was at most 0.5 µM.
